Measured values: patent publication US11065286B2 (priority 2016, dated 2021)

Experiments:
[1] = tested on: Renca, MC38, and 4T1 cell lines; format: cell-based, mouse
MDA-MB-231 cells = format: cell-based

Row | Molecule | viral gene expression with HMGB1mut expression in presence of inhibitor [1] | vaccinia replication (MDA-MB-231 cells)
1 | Bafilomycin A1 | loss of the increased viral gene expression | –
2 | C/C=C/C/C=C/CCC(=O)[C@H]1O[C@H]1C(N)=O [cerulenin] | – | significantly reduced vaccinia replication
